According to PMC8401042, “Non-Toxic Dimeric Peptides Derived from the Bothropstoxin-I Are Potent SARS-CoV-2 and Papain-like Protease Inhibitors” (Molecules, 2021):
Where two headings read alike, the source gives them in different places. Bridge positions count the residues as written; N and C are the ends. Peptide text beside a SMILES is read from it. I, II: the chains in the order shown.

How the values were obtained:
[1] = target: T1, SARS-CoV-2 PLpro (Severe acute respiratory syndrome coronavirus 2, UniProt P0DTD1); assay: SARS-CoV-2 PLpro FRET enzyme inhibition assay; assay type: biochemical; details: for inhibition at 10 µM: 10 µM peptide, 27 µM substrate, 37 °C
[2] = target: T1, SARS-CoV-2 PLpro; assay: Microscale thermophoresis (MST) binding assay; details: 100 nM labelled PLpro, peptides 0.015 to 500 µM, 50 mM HEPES pH 7.5, 100 mM NaCl, 2 mM DTT, DMSO 5%; triplicate, Hill fit
[3] = system: SARS-CoV-2; details: for SARS-CoV-2 % of inhibition at 100 µM: 24 h
[4] = calculated from IC50 values, Figure 3A, read-out: pIC50 (−logIC50), PLpro (converted)

Compound | inhibition at 10 µM ([1]; 70 nM enzyme) [%] | IC50 [1, 4] [nM] | Kd [2] [nM] | SARS-CoV-2 % of inhibition at 100 µM [3] [%] | IC50 ([1]; 70 nM enzyme, 27 µM FRET substrate, 50 mM HEPES pH 7.5, 0.01% Triton X-100, 5 mM DTT, 30 min pre-incubation at 37 °C, Hill fit, two independent experiments, read-out: IC50 against PLpro) [nM] | SI = selectivity index (CC50/EC50) ([3]; CC50/EC50 in Vero cells)
CC(C)C[C@H](NC(=O)[C@H](Cc1c[nH]cn1)NC(=O)[C@H](Cc1ccc(O)cc1)NC(=O)[C@H](CCCNC(=N)N)NC(=O)[C@H](Cc1ccc(O)cc1)NC(=O)[C@H](CCCCN)NC(=O)[C@@H](N)CCCCN)C(=O)N[C@@H](CCCCN)C(=O)N1CCC[C@H]1C(=O)N[C@@H](Cc1ccccc1)C(=O)NCCCC[C@H](NC(=O)[C@H](Cc1ccccc1)NC(=O)[C@@H]1CCCN1C(=O)[C@H](CCCCN)NC(=O)[C@H](CC(C)C)NC(=O)[C@H](Cc1c[nH]cn1)NC(=O)[C@H](Cc1ccc(O)cc1)NC(=O)[C@H](CCCNC(=N)N)NC(=O)[C@H](Cc1ccc(O)cc1)NC(=O)[C@H](CCCCN)NC(=O)[C@@H](N)CCCCN)C(N)=O [(pBthTX-I)2K, des-Cys^11,Lys^12,Lys^13-(pBthTX-I)2K] (I: H-KKYRYHLKPFK-NH2 / II: H-KKYRYHLKPF; amide I:11-II:C) | 98 | 2400 | 900 ± 100 |  |  | 
CC(C)C[C@H](NC(=O)[C@H](Cc1c[nH]cn1)NC(=O)[C@H](Cc1ccc(O)cc1)NC(=O)[C@H](CCCNC(=N)N)NC(=O)[C@H](Cc1ccc(O)cc1)NC(=O)[C@H](CCCCN)NC(=O)[C@@H](N)CCCCN)C(=O)N[C@@H](C)C(=O)N1CCC[C@H]1C(=O)N[C@@H](Cc1ccccc1)C(=O)NCCCC[C@H](NC(=O)[C@H](Cc1ccccc1)NC(=O)[C@@H]1CCCN1C(=O)[C@H](C)NC(=O)[C@H](CC(C)C)NC(=O)[C@H](Cc1c[nH]cn1)NC(=O)[C@H](Cc1ccc(O)cc1)NC(=O)[C@H](CCCNC(=N)N)NC(=O)[C@H](Cc1ccc(O)cc1)NC(=O)[C@H](CCCCN)NC(=O)[C@@H](N)CCCCN)C(N)=O [A8] (I: H-KKYRYHLAPFK-NH2 / II: H-KKYRYHLAPF; amide I:11-II:C) | 99 | 2400 |  |  |  | 
CC(C)C[C@H](NC(=O)[C@H](Cc1c[nH]cn1)NC(=O)[C@H](Cc1ccc(O)cc1)NC(=O)[C@H](CCCNC(=N)N)NC(=O)[C@H](Cc1ccc(O)cc1)NC(=O)[C@H](CCCCN)NC(=O)[C@@H](N)CCCCN)C(=O)N[C@@H](CCCCN)C(=O)N1CCC[C@H]1C(=O)N[C@@H](C)C(=O)NCCCC[C@H](NC(=O)[C@H](C)NC(=O)[C@@H]1CCCN1C(=O)[C@H](CCCCN)NC(=O)[C@H](CC(C)C)NC(=O)[C@H](Cc1c[nH]cn1)NC(=O)[C@H](Cc1ccc(O)cc1)NC(=O)[C@H](CCCNC(=N)N)NC(=O)[C@H](Cc1ccc(O)cc1)NC(=O)[C@H](CCCCN)NC(=O)[C@@H](N)CCCCN)C(N)=O [A10] (I: H-KKYRYHLKPAK-NH2 / II: H-KKYRYHLKPA; amide I:11-II:C) | 98 |  |  | 7 | 2400 ± 200 | 
Cc1c(-c2ccc(-c3ccccc3F)cc2)nc2ccc(F)cc2c1C(=O)O [BREQ, brequinar, reference compound] |  |  |  |  |  | >25
CC[C@H](C)[C@H](N)C(=O)N[C@@H](Cc1ccccc1)C(=O)NCC(=O)N[C@@H](C)C(=O)N[C@H](C(=O)N[C@@H](CC(C)C)C(=O)N1CCC[C@H]1C(=O)N[C@@H](CC(C)C)C(=O)N[C@@H](C)C(=O)N[C@@H](CC(C)C)C(=O)NCC(=O)N[C@@H](C)C(=O)N[C@@H](CC(C)C)C(=O)N[C@@H](CCCCN)C(=O)N[C@@H](CC(N)=O)C(=O)N[C@@H](CC(C)C)C(=O)N[C@H](C(=O)N[C@@H](CCCCN)C(N)=O)[C@@H](C)CC)[C@@H](C)CC [Hy-a1, Hylin a1, reference compound] (H-IFGAILPLALGALKNLIK-NH2; N-terminus and C-terminus assumed) | 13 |  |  | 59 |  | 
